How the values were obtained:
Cediranib/AZD2171 = compound: COc1cc2c(Oc3ccc4[nH]c(C)cc4c3F)ncnc2cc1OCCCN1CCCC1 [Cediranib/AZD2171]
[1] = compound: CC(=O)Nc1cccc(-n2c(=O)n(C3CC3)c(=O)c3c(Nc4ccc(I)cc4F)n(C)c(=O)c(C)c32)c1
Alpelisib/BYL719 = compound: Cc1nc(NC(=O)N2CCC[C@H]2C(N)=O)sc1-c1ccnc(C(C)(C)C(F)(F)F)c1 [Alpelisib/BYL719]
Saracatinib/AZD0530 = compound: CN1CCN(CCOc2cc(OC3CCOCC3)c3c(Nc4c(Cl)ccc5c4OCO5)ncnc3c2)CC1 [Saracatinib/AZD0530]
[2] = compound: CCc1cnn2c(NCc3ccc[n+]([O-])c3)cc(N3CCCC[C@H]3CCO)nc12; assay: increase in dead-cell fraction, 72 h; higher = more death;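 note: breast cancer cell lines in 384-well plates, stained with Hoechst plus LIVE/DEAD far red dye and imaged, cells above an LDR intensity threshold counted dead, Hoechst-negative corpses included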
Neratinib/HKI272 = compound: CCOc1cc2ncc(C#N)c(Nc3ccc(OCc4ccccn4)c(Cl)c3)c2cc1NC(=O)/C=C/CN(C)C [Neratinib/HKI272]; assay: as above
[3] = compound: CC(=O)c1c(C)c2cnc(Nc3ccc(N4CCNCC4)cn3)nc2n(C2CCCC2)c1=O; assay: as above
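Throughout, for GR50, 72 h: breast cancer and non-malignant breast epithelial cell lines, Deep Dye Drop or Dye Drop imaging, nine half-log doses, GR normalized to time-zero plates and DMSO-only controls.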

## MDAMB157
Cediranib/AZD2171
  GR50, 72 h: 0.825 µM
[1]
  GR50, 72 h: 0.111 µM
Alpelisib/BYL719
  GR50, 72 h: 9.77 µM
Saracatinib/AZD0530
  GR50, 72 h: 5.23 µM
[2]; 0.0001 µM
  increase in dead-cell fraction: 0
[2]; 0.0003162 µM
  increase in dead-cell fraction: -0.0024
[2]; 0.001 µM
  increase in dead-cell fraction: 0.0008
[2]; 0.003162 µM
  increase in dead-cell fraction: 0.0027
[2]; 0.01 µM
  increase in dead-cell fraction: 0.028
[2]; 0.03162 µM
  increase in dead-cell fraction: 0.41
[2]; 0.1 µM
  increase in dead-cell fraction: 0.781
[2]; 0.3162 µM
  increase in dead-cell fraction: 0.834
[2]; 1 µM
  increase in dead-cell fraction: 0.851
Neratinib/HKI272; 0.0003162 µM
  increase in dead-cell fraction: 0.0012
Neratinib/HKI272; 0.001 µM
  increase in dead-cell fraction: 0.0066
Neratinib/HKI272; 0.003162 µM
  increase in dead-cell fraction: 0.004
Neratinib/HKI272; 0.01 µM
  increase in dead-cell fraction: -0.0008
Neratinib/HKI272; 0.03162 µM
  increase in dead-cell fraction: 0.0016
Neratinib/HKI272; 0.1 µM
  increase in dead-cell fraction: -0.0006
Neratinib/HKI272; 0.3162 µM
  increase in dead-cell fraction: 0.0073
Neratinib/HKI272; 1 µM
  increase in dead-cell fraction: -0.0005
Neratinib/HKI272; 3.162 µM
  increase in dead-cell fraction: 0.032
[3]; 0.0003162 µM
  increase in dead-cell fraction: 0.0033
[3]; 0.001 µM
  increase in dead-cell fraction: 0.0064
[3]; 0.003162 µM
  increase in dead-cell fraction: 0.0023
[3]; 0.01 µM
  increase in dead-cell fraction: 0.0015
[3]; 0.03162 µM
  increase in dead-cell fraction: 0.0013
[3]; 0.1 µM
  increase in dead-cell fraction: 0.0006
[3]; 0.3162 µM
  increase in dead-cell fraction: -0.002
[3]; 1 µM
  increase in dead-cell fraction: -0.0042
[3]; 3.162 µM
  increase in dead-cell fraction: -0.0011

Source: the supplement of paper PMC9663587
